Source: paper PMC10671431, “New Derivatives of N-Hydroxybutanamide: Preparation, MMP Inhibition, Cytotoxicity, and Antitumor Activity” (International Journal of Molecular Sciences, 2023)

Key:
HeLa = assay: Cytotoxicity, MTT test; assay type: cell-based, human; settings: 72 h of exposure
Protocol: (§1) Cell culture. A-172 (human glioblastoma cells), HepG2 (human hepatocellular carcinoma cells), M-HeLa (human cervical adenocarcinoma cells, M subclone), Vero (African green monkey kidney epithelial cells), and FetMSC (human embryonic mesenchymal stem cells) were purchased from the Russian Collection of Cell Cultures of Vertebrates (Institute of Cytology RAS, St. Petersburg, Russia). The U-251 MG cell line (human glioblastoma-astrocytoma) was purchased from the European Collection of Authenticated Cell Cultures (Salisbury, UK). All cells were grown at 37 °C in an atmosphere of 5% CO2. A-172 and Vero cells were cultured in DMEM medium (PanEco, Moscow, Russia). HepG2, HeLa, and U-251 MG cells were cultured in EMEM medium (PanEco). FetMSC cells were cultured in F12/DMEM medium (PanEco). All incubation media were supplemented with 10% fetal calf serum (BioWest, Nuaillé, France), 50 U/mL penicillin, and […] streptomycin (PanEco). Additionally, media for HeLa, HepG2, and U-251 MG cells were supplemented with 2 mM glutamine (PanEco) and 1% essential amino acids (PanEco), media for A-172 and Vero cells were supplemented with 4 mM glutamine, and the medium for FetMSC cells was supplemented with 3 mM glutamine. The medium for U-251 MG cells was additionally supplemented with 1 mM sodium pyruvate (PanEco).
(§2) Cytotoxicity studies. The cytotoxicity of the compounds was assessed using the MTT test. Cells were seeded into 96-well plates at varying concentrations of 5 × 10^4 cells/mL (A-172, Vero and HeLa), 7 × 10^4 cells/mL (HepG2 and U-251 MG), and 10 × 10^4 cells/mL (FetMSC). The studied compounds were added to the incubation medium 24 h after seeding at concentrations ranging from 7.8 μM to 500 μM. All compounds were dissolved in DMSO and diluted with the incubation medium to their final concentrations just before use. The incubation medium in wells was aspirated and replaced with medium containing the studied compounds. The final concentration of DMSO in all samples was 0.1%. Control samples were treated with 0.1% DMSO. After 72 h of exposure, 3-(4,5-dimethylthiazol-2-yl)-2,5-diphenyl-2H-tetrazolium bromide (MTT) (Dia-M, Moscow, Russia) was added to the incubation medium at a concentration of 0.5 mg/mL. The resulting MTT-formazan crystals were dissolved in DMSO. The optical density was measured at 570 nm with a background wavelength of 620 nm using a Spark 10M plate reader. IC50 values were determined using a median effect analysis from the dose–effect relationships.

HepG2 = assay: Cytotoxicity, MTT test; assay type: cell-based, human
Protocol: as §1, §2

A-172 = assay: Cytotoxicity, MTT test; assay type: cell-based, human
Protocol: as §1, §2

B16 melanoma [1] = assay: Antitumor activity in vivo, tumor growth; parameters: species or system mouse; settings: BDF1 mice, i.p., CP 100 mg/kg days 2, 7, cPt 4 mg/kg days 2–9, 4 300 mg/kg days 2–9
Protocol: (§3) Antitumor activity in vivo. The B16 mouse melanoma was used as a tumor model. The B16 melanoma tumor strain was induced in male BDF1 mice by subcutaneous inoculation of 0.2–0.5 mL of a suspension of tumor tissue in medium 199 at intervals of 12–16 days. For the experiments, BDF1 mice were inoculated with 0.3 mL of a suspension of tumor tissue diluted in a 0.9% NaCl solution at a ratio of 1:5 subcutaneously on the right side.
(§4) Compound 4 was dissolved in a 0.9% NaCl solution with 1% DMSO. […] Control animals were injected intraperitoneally with 1% DMSO in saline (0.9% NaCl) in the same volumes as the test compounds.
Tumor growth was monitored on days 0, 6, 8, 10, 13, 15, 17, and 20 by measuring the tumor size with a digital caliper. The mean tumor diameter was calculated using the formula:D = 3√a × b × c,(2) where a, b, and c are mutually perpendicular tumor diameters.

B16 melanoma [2] = assay: Antimetastatic activity in vivo, lung metastases; parameters: species or system mouse; settings: lungs, B16 melanoma, BDF1 mice, doses as in Table 5; for Number of Animals without Metastases: of 6 animals in the group
Protocol: as §3, §4
And MNMcont. are the mean number of metastases in the experimental and control groups, respectively.

Vero = assay: Cytotoxicity, MTT test; assay type: cell-based, African green monkey; settings: 72 h of exposure
Protocol: as §1, §2

FetMSC = assay: Cytotoxicity, MTT test; assay type: cell-based, human; settings: Homo sapiens; 72 h of exposure, MTT
Protocol: as §1, §2

[3] = Cytotoxicity, MTT test, statements on all cell lines studied; assay type: cell-based; settings: human, African green monkey, 72 h of exposure, summary over cell lines, read-out: cytotoxicity IC50, cells in general
Protocol: as §1, §2

MMP-2 = target: T1, MMP-2 (Homo sapiens, UniProt P08253); assay: MMP activity assay, fluorogenic substrate (MMP Inhibitor Profiling Kit); assay type: biochemical; settings: read-out: MMP-inhibiting activity IC50, MMP-2
T1 construct: the BML- prefix points to Enzo Life Sciences, own knowledge BML-AK308
T1 sequence (P08253 110-446 limits assumed): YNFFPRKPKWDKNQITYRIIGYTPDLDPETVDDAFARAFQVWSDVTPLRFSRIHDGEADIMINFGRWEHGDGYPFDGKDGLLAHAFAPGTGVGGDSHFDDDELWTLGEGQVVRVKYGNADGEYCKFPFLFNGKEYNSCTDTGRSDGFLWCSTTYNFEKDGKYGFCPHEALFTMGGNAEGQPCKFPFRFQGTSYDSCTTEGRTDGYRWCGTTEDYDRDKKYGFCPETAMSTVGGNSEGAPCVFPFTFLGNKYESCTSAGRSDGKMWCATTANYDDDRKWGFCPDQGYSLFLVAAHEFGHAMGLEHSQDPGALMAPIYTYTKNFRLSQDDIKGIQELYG
Protocol: (§5) Determination of MMP activity. A fluorescently labeled substrate probe containing a fluorescent label and a fluorescence quencher, was utilized for this study. […] Enzyme activity was assessed using the MMP Inhibitor Profiling Kit (Product # BML-AK308, New York, NY, USA) according to the manufacturer’s recommendations. The nonspecific inhibitor NNGH was used as a positive control. The fluorescence of the fluorogenic substrate OmniMMP^TM RED was measured at wavelengths Ex/Em = 545/576 nm using a Spark 10M multimode plate reader (Tecan, Zurich, Switzerland). Reaction rates were expressed in relative fluorescence units (RFUs) per minute. The activity of MMPs in the presence of the studied compounds was determined as follows:Activity, % = (Vinh/Vcont) × 100,(1) where V is the initial reaction rate (RFUs/min) in the presence (Vinh) and absence (Vcont) of the studied compounds.
(§6) All tested compounds were dissolved in DMSO. The final concentration of DMSO in all samples was 0.1%. Control samples were treated with 0.1% DMSO.

MMP-14 = target: T2, MMP-14 (Homo sapiens, UniProt P50281); assay: as above; assay type: biochemical; settings: read-out: MMP-inhibiting activity IC50, MMP-14
T2 construct: the BML- prefix points to Enzo Life Sciences, own knowledge BML-AK308
Protocol: as §5, §6

MMP-9 = target: T3, MMP-9 (Homo sapiens, UniProt P14780); assay: as above; assay type: biochemical; settings: read-out: MMP-inhibiting activity IC50, MMP-9
T3 construct: the BML- prefix points to Enzo Life Sciences, own knowledge BML-AK308
T3 sequence (P14780 107-444 limits assumed): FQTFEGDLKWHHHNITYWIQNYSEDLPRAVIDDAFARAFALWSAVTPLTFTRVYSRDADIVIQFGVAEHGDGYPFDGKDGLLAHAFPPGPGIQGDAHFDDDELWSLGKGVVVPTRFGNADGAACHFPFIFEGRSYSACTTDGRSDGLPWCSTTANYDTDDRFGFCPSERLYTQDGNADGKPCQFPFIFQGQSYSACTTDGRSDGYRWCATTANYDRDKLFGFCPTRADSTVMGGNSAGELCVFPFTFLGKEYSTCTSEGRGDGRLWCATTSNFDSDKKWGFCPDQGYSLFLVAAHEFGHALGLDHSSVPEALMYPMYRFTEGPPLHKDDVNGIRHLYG
Protocol: as §5, §6

MMP-3 = target: T4, MMP-3 (Homo sapiens, UniProt P08254); assay: as above; assay type: biochemical; settings: read-out: MMP-inhibiting activity IC50, MMP-3
T4 construct: the BML- prefix points to Enzo Life Sciences, own knowledge BML-AK308
T4 sequence (P08254 100-272 limits assumed): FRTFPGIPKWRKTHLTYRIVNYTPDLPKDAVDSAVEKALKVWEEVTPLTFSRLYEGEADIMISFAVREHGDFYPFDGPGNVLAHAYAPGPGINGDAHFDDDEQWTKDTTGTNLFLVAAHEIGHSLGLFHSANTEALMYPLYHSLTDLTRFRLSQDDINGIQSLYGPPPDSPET
Protocol: as §5, §6

U-251 MG = assay: Cytotoxicity, MTT test; assay type: cell-based; settings: Homo sapiens, 72 h of exposure
Protocol: as §1, §2

[4] = test system: pancreatic carcinoma cells CD18; parameters: method as in PMID 24022491; settings: 5 μM, 24 h of exposure; cited from earlier work
[5] = test system: pancreatic carcinoma cells MiaPaCa2; parameters: method as in PMID 24022491; settings: 5 μM, 24 h of exposure; cited from earlier work
[6] = test system: CAC-1 cells (human cervical adenocarcinoma); parameters: method as in PMID 11925127; settings: 72 h of exposure, cited from earlier work
[7] = test system: hamster pancreatic cancer cell line PGHAM-1; parameters: method as in PMID 11291083; settings: 72 h of exposure, cited from earlier work
[8] = Homo sapiens, HepG2, 72 h of exposure
[9] = Homo sapiens, A 172, 72 h of exposure

Structure (SMILES) | IC50 (HeLa; Homo sapiens, HeLa) [µM] | IC50 (HepG2; [8]) [µM] | IC50 (A-172; [9]) [µM] | IC50 (FetMSC) [µM] | IC50 at 72 h [3] [µM] | IC50 (Vero; Chlorocebus sabaeus, Vero) [µM] | IC50 (MMP-2) [µM] | IC50 (MMP-14) [µM] | IC50 (MMP-9) [µM] | IC50 (MMP-3) [µM] | IC50 (U-251 MG) [µM] | further results
N.N.[Cl][Pt][Cl] [Cisplatin, cisplatin] | – | – | – | – | – | – | – | – | – | – | – | IC50 (HeLa): 11.7 ± 2.41 µM; IC50 (HepG2; 72 h of exposure): 13.2 ± 1.62 µM; IC50 (A-172; 72 h of exposure): 8.46 ± 0.92 µM; Tumor Growth Inhibition, % Day 10 (B16 melanoma [1]): 76.47%; Tumor Growth Inhibition, % Day 13 (B16 melanoma [1]): 61.11%; Tumor Growth Inhibition, % Day 15 (B16 melanoma [1]): 52.07%; Tumor Growth Inhibition, % Day 17 (B16 melanoma [1]): 32.00%; Tumor Growth Inhibition, % Day 20 (B16 melanoma [1]): 9.54%; % Inhibition of Metastases (B16 melanoma [2]): 71.9%; Mean Number of Metastases per Mouse (B16 melanoma [2]): 3.3 ± 2.4; Metastasis Rate, % (B16 melanoma [2]): 83.3%; Number of Animals without Metastases (B16 melanoma [2]): 1; IC50 (Vero): 10.7 ± 1.45 µM
O=C(CCC(=O)NNC(=O)c1ccccc1[N+](=O)[O-])NO [Compound 1, N-hydroxy-4-[2-(2-nitrobenzoyl)hydrazinyl]-4-oxobutanamide] | 377 ± 25.2 | 393 ± 26.2 | > 500 | > 500 | > 100 | > 500 | > 10 | > 10 | > 10 | > 10 | > 500 | –
COc1ccccc1C(=O)NNC(=O)CCC(=O)NO [Compound 5, N-hydroxy-4-[2-(2-methoxybenzoyl)hydrazinyl]-4-oxobutanamide] | 194 ± 13.4 | 221 ± 12.6 | > 500 | > 500 | > 100 | > 500 | > 10 | > 10 | > 10 | > 10 | > 500 | –
O=C(CCC(=O)NNC(=O)c1cccc([N+](=O)[O-])c1)NO [Compound 2, N-hydroxy-4-[2-(3-nitrobenzoyl)hydrazinyl]-4-oxobutanamide] | 185 ± 15.3 | 213 ± 15.3 | > 500 | > 500 | > 100 | > 500 | > 10 | > 10 | > 10 | > 10 | > 500 | –
CNC(=O)[C@@H](NC(=O)[C@H](CCCc1ccccc1)[C@H](C)N(O)C=O)C(C)(C)C [GI254023X] | – | – | – | – | – | – | – | – | – | – | – | toxicity to cells [4]: toxic; toxicity to cells [5]: toxic
O=P1(N(CCCl)CCCl)NCCCO1 (stereo not drawn) [CP, cyclophosphamide] | – | – | – | – | – | – | – | – | – | – | – | Tumor Growth Inhibition, % Day 10 (B16 melanoma [1]): 52.94%; Tumor Growth Inhibition, % Day 13 (B16 melanoma [1]): 38.10%; Tumor Growth Inhibition, % Day 15 (B16 melanoma [1]): 43.20%; Tumor Growth Inhibition, % Day 17 (B16 melanoma [1]): 27.43%; Tumor Growth Inhibition, % Day 20 (B16 melanoma [1]): 14.02%; % Inhibition of Metastases (B16 melanoma [2]): 39.3%; Mean Number of Metastases per Mouse (B16 melanoma [2]): 7.1 ± 2.2; Metastasis Rate, % (B16 melanoma [2]): 100%; Number of Animals without Metastases (B16 melanoma [2]): 0
O=C(O)[C@@H](Cc1c[nH]c2ccccc12)NS(=O)(=O)c1ccc(-c2nnn(-c3ccccc3)n2)cc1 [MMI-166] | – | – | – | – | – | – | – | – | – | – | – | cytotoxicity IC50 [6]: higher than 50 μg/mL; IC50 ([6]; read-out: cytotoxicity IC50): > 102 µM; cytotoxicity IC50 [7]: higher than 100 μg/mL; IC50 ([7]; read-out: cytotoxicity IC50): > 205 µM
O=C(CCC(=O)NNC(=O)c1ccc([N+](=O)[O-])cc1)NO [Compound 3, N-hydroxy-4-[2-(4-nitrobenzoyl)hydrazinyl]-4-oxobutanamide] | 237 ± 14.2 | 252 ± 15.8 | > 500 | > 500 | > 100 | > 500 | > 10 | > 10 | > 10 | > 10 | > 500 | –
